From article PMC4734667 (PLoS ONE, 2016) come the findings set out here.

Values joined by “and” are separate entries in the source; they are usually repeats but may differ in a detail not shown here. Identical values can stand only once.

In one assay the target is NMDA receptor (Rattus norvegicus, UniProt P35439+Q00959). Briefly: NMDA receptor-mediated fEPSPs in rat hippocampal slices (CA1, MEA). Conditions: 30 μM D-AP5. It is filed as cell-based.
Assay [1] relates to NMDA receptor (NMDA + glycine evoked currents). Briefly: Whole-cell manual patch clamp of rat cortical neurons in primary culture. Type of assay: cell-based. The conditions noted are these: 10 μM compound; NMDA 100 μM + glycine 10 μM; +40 mV; mean ± SEM. A general note: In patch-clamp work, channel activity is measured electrically.
Description: Cortical neurons isolated from E18 rat embryos and cultured for two weeks were examined in whole-cell manual patch clamp experiments.
Cryopreserved E-18 rat cortical neurons (GIBCO A10840-02) were purchased from Life Technologies Italia (Monza, Italy).
Cortical neurons were thawed and plated at 5x10^4 or 10x10^4 cells/well in 35 x 100 mm tissue culture dishes containing poly-D-lysine treated glass coverslips, and maintained in the media and conditions recommended by the manufacturer for 13–15 days. […] Glycine (10 μM) was added in the extracellular solution or in the NMDA solution. Cells were patch clamped in the whole-cell configuration with a holding potential of -70 mV stepping once every minute to +20 or +40 mV for 10 s. Starting 1.5 s after each voltage step, 100 μM NMDA plus 10 μM glycine was applied using rapid local perfusion (RSC-200, Bio-Logic Science Instruments, Claix, France). Currents were evaluated at peak during the NMDA application, and current inhibition was computed using Prism software (GraphPad) once steady state was achieved.

Chain of NMDA receptor (Q00959 23-1464, other chains not shown): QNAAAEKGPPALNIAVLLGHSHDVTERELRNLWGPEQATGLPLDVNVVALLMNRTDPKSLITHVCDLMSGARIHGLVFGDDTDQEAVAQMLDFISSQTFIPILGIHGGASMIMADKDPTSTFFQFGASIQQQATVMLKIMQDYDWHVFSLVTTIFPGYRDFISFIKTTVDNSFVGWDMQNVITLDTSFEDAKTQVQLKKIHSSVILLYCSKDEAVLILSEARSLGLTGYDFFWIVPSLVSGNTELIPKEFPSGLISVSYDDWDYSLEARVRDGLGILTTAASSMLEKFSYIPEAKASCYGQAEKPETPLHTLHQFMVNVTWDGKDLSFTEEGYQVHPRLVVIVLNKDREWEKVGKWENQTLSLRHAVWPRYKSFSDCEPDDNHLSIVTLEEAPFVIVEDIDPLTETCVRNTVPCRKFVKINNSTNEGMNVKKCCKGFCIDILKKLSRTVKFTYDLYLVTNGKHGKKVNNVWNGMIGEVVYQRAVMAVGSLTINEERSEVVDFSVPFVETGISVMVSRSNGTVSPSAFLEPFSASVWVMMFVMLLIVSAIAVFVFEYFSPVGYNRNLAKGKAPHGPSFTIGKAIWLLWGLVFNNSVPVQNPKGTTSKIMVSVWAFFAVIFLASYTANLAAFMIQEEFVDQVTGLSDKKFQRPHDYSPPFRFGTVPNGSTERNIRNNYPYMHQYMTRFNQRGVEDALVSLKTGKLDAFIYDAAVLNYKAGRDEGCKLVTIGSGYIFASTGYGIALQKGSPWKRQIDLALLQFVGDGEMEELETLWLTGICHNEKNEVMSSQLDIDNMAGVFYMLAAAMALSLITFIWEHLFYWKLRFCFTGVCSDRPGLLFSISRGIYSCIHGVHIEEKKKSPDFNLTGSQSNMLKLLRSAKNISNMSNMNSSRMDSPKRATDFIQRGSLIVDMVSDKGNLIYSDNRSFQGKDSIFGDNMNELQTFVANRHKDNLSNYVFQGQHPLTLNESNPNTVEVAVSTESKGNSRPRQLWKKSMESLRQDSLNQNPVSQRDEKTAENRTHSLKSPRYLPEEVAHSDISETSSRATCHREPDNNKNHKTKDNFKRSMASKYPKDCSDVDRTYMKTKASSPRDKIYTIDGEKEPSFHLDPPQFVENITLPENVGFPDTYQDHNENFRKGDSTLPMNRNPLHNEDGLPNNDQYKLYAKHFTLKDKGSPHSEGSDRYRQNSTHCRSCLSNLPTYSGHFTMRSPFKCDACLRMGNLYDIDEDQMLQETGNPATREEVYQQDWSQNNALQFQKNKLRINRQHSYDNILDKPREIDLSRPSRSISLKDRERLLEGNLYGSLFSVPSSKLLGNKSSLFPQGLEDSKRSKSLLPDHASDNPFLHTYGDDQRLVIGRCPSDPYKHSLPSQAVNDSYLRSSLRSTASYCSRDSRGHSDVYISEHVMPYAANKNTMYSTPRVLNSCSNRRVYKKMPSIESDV

Take `NC(CCCP(=O)(O)O)C(=O)O` [D-AP5]: the “block of fEPSPs by D-AP5 at the conclusion of each experiment” value on NMDA receptor is “completely blocked”.

As to Ro 25–6981, the “block of NMDA + glycine evoked currents in rat cortical neurons” value in assay [1] is 72 ± 5% and ~ 70%.
